± gives the expanded uncertainty stated by the source.
Conditions: 303.15 K, Liquid, Vibrating tube method

CCCCCCC(=O)OCC(COC(=O)CCCCCC)(COC(=O)CCCCCC)COC(=O)CCCCCC [pentaerythritol tetraheptanoate]
mass density (26666 kPa): 986.5 ± 1.2 kg/m3 | mass density (26712 kPa): 986.5 ± 1.2 kg/m3 | mass density (26749 kPa): 986.4 ± 1.2 kg/m3 | mass density (26795 kPa): 986.4 ± 1.2 kg/m3 | mass density (26834 kPa): 986.6 ± 1.2 kg/m3 | mass density (26872 kPa): 986.6 ± 1.2 kg/m3 | mass density (26910 kPa): 986.6 ± 1.2 kg/m3 | mass density (26957 kPa): 986.6 ± 1.2 kg/m3 | mass density (26996 kPa): 986.6 ± 1.2 kg/m3 | mass density (27043 kPa): 986.5 ± 1.2 kg/m3 | mass density (27083 kPa): 986.7 ± 1.2 kg/m3 | mass density (27122 kPa): 986.7 ± 1.2 kg/m3 | mass density (27169 kPa): 986.7 ± 1.2 kg/m3 | mass density (27209 kPa): 986.8 ± 1.2 kg/m3 | mass density (27249 kPa): 986.7 ± 1.2 kg/m3 | mass density (27289 kPa): 987 ± 1.2 kg/m3 | mass density (27337 kPa): 986.8 ± 1.2 kg/m3 | mass density (27376 kPa): 986.8 ± 1.2 kg/m3 | mass density (27425 kPa): 986.9 ± 1.2 kg/m3 | mass density (27465 kPa): 987 ± 1.2 kg/m3 | mass density (27506 kPa): 986.9 ± 1.2 kg/m3 | mass density (27555 kPa): 986.8 ± 1.2 kg/m3 | mass density (27596 kPa): 986.9 ± 1.2 kg/m3 | mass density (27638 kPa): 986.9 ± 1.2 kg/m3 | mass density (27679 kPa): 987.1 ± 1.2 kg/m3 | mass density (27728 kPa): 987 ± 1.2 kg/m3 | mass density (27770 kPa): 987 ± 1.2 kg/m3 | mass density (27811 kPa): 987.1 ± 1.2 kg/m3 | mass density (27861 kPa): 987.1 ± 1.2 kg/m3 | mass density (27904 kPa): 987 ± 1.2 kg/m3 | mass density (27954 kPa): 987.1 ± 1.2 kg/m3 | mass density (27997 kPa): 987.2 ± 1.2 kg/m3 | mass density (28082 kPa): 987.3 ± 1.2 kg/m3 | mass density (28133 kPa): 987.4 ± 1.2 kg/m3 | mass density (28176 kPa): 987.3 ± 1.2 kg/m3 | mass density (28221 kPa): 987.4 ± 1.2 kg/m3 | mass density (28273 kPa): 987.3 ± 1.2 kg/m3 | mass density (28316 kPa): 987.3 ± 1.2 kg/m3 | mass density (28360 kPa): 987.4 ± 1.2 kg/m3 | mass density (28404 kPa): 987.3 ± 1.2 kg/m3 | mass density (28457 kPa): 987.4 ± 1.2 kg/m3 | mass density (28501 kPa): 987.5 ± 1.2 kg/m3 | mass density (28545 kPa): 987.5 ± 1.2 kg/m3 | mass density (28598 kPa): 987.5 ± 1.2 kg/m3 | mass density (28642 kPa): 987.5 ± 1.2 kg/m3 | mass density (28687 kPa): 987.5 ± 1.2 kg/m3 | mass density (28740 kPa): 987.6 ± 1.2 kg/m3 | mass density (28785 kPa): 987.6 ± 1.2 kg/m3 | mass density (28832 kPa): 987.7 ± 1.2 kg/m3 | mass density (28886 kPa): 987.6 ± 1.2 kg/m3 | mass density (28932 kPa): 987.7 ± 1.2 kg/m3 | mass density (28977 kPa): 987.6 ± 1.2 kg/m3 | mass density (29023 kPa): 987.9 ± 1.2 kg/m3 | mass density (29079 kPa): 987.7 ± 1.2 kg/m3 | mass density (29125 kPa): 987.7 ± 1.2 kg/m3 | mass density (29181 kPa): 987.8 ± 1.2 kg/m3 | mass density (29227 kPa): 987.9 ± 1.2 kg/m3 | mass density (29274 kPa): 987.9 ± 1.2 kg/m3 | mass density (29321 kPa): 987.9 ± 1.2 kg/m3 | mass density (29379 kPa): 987.9 ± 1.2 kg/m3 | mass density (29475 kPa): 988 ± 1.2 kg/m3 | mass density (29523 kPa): 988.1 ± 1.2 kg/m3 | mass density (29581 kPa): 988 ± 1.2 kg/m3 | mass density (29630 kPa): 988 ± 1.2 kg/m3 | mass density (29679 kPa): 988.1 ± 1.2 kg/m3 | mass density (29739 kPa): 988.1 ± 1.2 kg/m3 | mass density (29790 kPa): 988.1 ± 1.2 kg/m3 | mass density (29841 kPa): 988.3 ± 1.2 kg/m3 | mass density (29903 kPa): 988.1 ± 1.2 kg/m3 | mass density (29949 kPa): 988.3 ± 1.2 kg/m3 | mass density (29986 kPa): 988.3 ± 1.2 kg/m3 | mass density (30029 kPa): 988.3 ± 1.2 kg/m3 | mass density (30067 kPa): 988.3 ± 1.2 kg/m3 | mass density (30103 kPa): 988.3 ± 1.2 kg/m3 | mass density (30138 kPa): 988.3 ± 1.2 kg/m3 | mass density (30182 kPa): 988.4 ± 1.2 kg/m3 | mass density (30218 kPa): 988.3 ± 1.2 kg/m3 | mass density (30253 kPa): 988.3 ± 1.2 kg/m3 | mass density (30297 kPa): 988.2 ± 1.2 kg/m3 | mass density (30334 kPa): 988.4 ± 1.2 kg/m3 | mass density (30370 kPa): 988.5 ± 1.2 kg/m3 | mass density (30407 kPa): 988.5 ± 1.2 kg/m3 | mass density (30451 kPa): 988.5 ± 1.2 kg/m3 | mass density (30489 kPa): 988.5 ± 1.2 kg/m3 | mass density (30527 kPa): 988.5 ± 1.2 kg/m3 | mass density (30576 kPa): 988.6 ± 1.2 kg/m3 | mass density (30613 kPa): 988.5 ± 1.2 kg/m3 | mass density (30651 kPa): 988.6 ± 1.2 kg/m3 | mass density (30698 kPa): 988.6 ± 1.2 kg/m3 | mass density (30738 kPa): 988.8 ± 1.2 kg/m3 | mass density (30778 kPa): 988.7 ± 1.2 kg/m3 | mass density (30814 kPa): 988.7 ± 1.2 kg/m3 | mass density (30846 kPa): 988.7 ± 1.2 kg/m3 | mass density (30873 kPa): 988.8 ± 1.2 kg/m3 | mass density (30905 kPa): 988.7 ± 1.2 kg/m3 | mass density (30932 kPa): 988.8 ± 1.2 kg/m3 | mass density (30958 kPa): 988.8 ± 1.2 kg/m3 | mass density (30990 kPa): 988.8 ± 1.2 kg/m3 | mass density (31018 kPa): 988.8 ± 1.2 kg/m3 | mass density (31045 kPa): 988.8 ± 1.2 kg/m3 | mass density (31072 kPa): 988.9 ± 1.2 kg/m3 | mass density (31105 kPa): 988.9 ± 1.2 kg/m3 | mass density (31132 kPa): 988.9 ± 1.2 kg/m3 | mass density (31159 kPa): 988.8 ± 1.2 kg/m3 | mass density (31192 kPa): 989 ± 1.2 kg/m3 | mass density (31220 kPa): 988.9 ± 1.2 kg/m3 | mass density (31252 kPa): 989 ± 1.2 kg/m3 | mass density (31280 kPa): 988.9 ± 1.2 kg/m3 | mass density (31308 kPa): 989.1 ± 1.2 kg/m3 | mass density (31335 kPa): 989 ± 1.2 kg/m3 | mass density (31369 kPa): 989.1 ± 1.2 kg/m3 | mass density (31398 kPa): 988.8 ± 1.2 kg/m3

From the NIST ThermoML archive (doi:10.1021/je060271a)
